# Patent US20230202981A1, “NOVEL SMALL MOLECULES FOR TARGETED DEGRADATION OF UNTARGETABLE KRAS IN CANCER THERAPY” (Pillai Universal LLC, priority 2020, published 2023)
# Experiments:
# [1] = tested on: BT-474; assay: IC50 of Compound 1 on breast cells (MTT assay); format: cell-based; settings: Homo sapiens; BT-474 cells
# From the text: (§1) The activity of Compound 1 on various mutated EGFRs, HER2, and HER4 were examined. MTT assays, flow cytometry, and Western blotting were used to examine the effects of Compound 1 on with different genetic characteristics and relevant molecular mechanisms. Nude mouse xenograft models with cells were used to evaluate the in vim anti-tumor activity of Compound 1. […] Compound 1 blocked EGFR phosphorylation, thereby down regulating downstream PI3/AKT and MAPK/ERK signaling pathways and inducing G0/G1 arrest in different cells. […] Due to compromised homologous recombination (HR) repair, BRCA 1-and BRCA 2-mutated tumours accumulate DNA damage and genomic rearrangements conducive of tumour progression.
# [2] = tested on: MDA-MB-453; assay: IC50 of Compound 1 on breast cells (MTT assay); format: cell-based; settings: Homo sapiens; MDA-MB-453 cells
# From the text: as §1
# [3] = tested on: MDA-MB-468; assay: IC50 of Compound 1 on breast cells (MTT assay); format: cell-based; settings: Homo sapiens; MDA-MB-468 cells
# From the text: as §1
# [4] = tested on: BT-549; assay: IC50 of Compound 1 on breast cells (MTT assay); format: cell-based; settings: Homo sapiens; BT-549 cells
# From the text: as §1
# [5] = tested on: ZR-75-1; assay: IC50 of Compound 1 on breast cells (MTT assay); format: cell-based; settings: Homo sapiens; ZR-75-1 cells
# From the text: as §1
# [6] = tested on: T-47D; assay: IC50 of Compound 1 on breast cells (MTT assay); format: cell-based; settings: Homo sapiens, T47D; T-47D cells
# From the text: as §1
# [7] = tested on: MCF-10A; assay: IC50 of Compound 1 on breast cells (MTT assay); format: cell-based; settings: Homo sapiens; MCF-10A cells
# From the text: as §1
# [8] = tested on: MCF-7; assay: IC50 of Compound 1 on breast cells (MTT assay); format: cell-based; settings: Homo sapiens, MCF7; MCF-7 cells
# From the text: as §1
# [9] = tested on: HCC1937; assay: IC50 of Compound 1 on breast cells (MTT assay); format: cell-based; settings: Homo sapiens
# From the text: as §1
# [10] = tested on: MDA-MB-231; assay: IC50 of Compound 1 on breast cells (MTT assay); format: cell-based; settings: Homo sapiens; MDA-MB-231 cells
# From the text: as §1
# [11] = tested on: PD-L1; assay: PD-L1 expression; format: cell-based
# From the text: The present invention is aimed to invent powerful, therapeutic small molecules that could target mutant KRAS on its active sites. Here we identified a small molecule, compound I, that binds the GTP/GDP-binding pocket of KRAS. For this purpose we studied a strong correlation of measurement among a larger panel of tumor cell lines expressing KRAS mutation and analyses the potency to inhibit the tumor cell growth activated RAS. […] Therefore, compound I may be considered as a potential KRAS inhibitor for treatment of cancer cells carrying KRAS oncogene.
# [12] = tested on: KRAS downstream signaling proteins in wild type KRAS; assay: Downstream signaling proteins, wild type KRAS (protein and gene expression analysis); format: cell-based
# [13] = tested on: CRAF, AKT and ERK phosphorylation in KRAS mutant cell lines; assay: Phosphorylation of KRAS downstream signaling pathway; format: cell-based; settings: 48 h, time-dependent
# Protocol: Active KRAS stimulates downstream signaling pathways, especially for RAF/MEK/ERK and […] pathway, and then induces cell proliferation. Therefore, to investigate the effect of Compound 1, the phosphorylation levels of CRAF, AKT and ERK in cell lines was examined to monitor the impact of KRAS signaling by treatment with this compound for 48 h.
# [14] = tested on: miR-30c and miR-21 in mutant KRAS; assay: miR-30c and miR-21 and tumor suppressor gene expression (microarray analysis); format: cell-based
# From the text: The effect of Compound 1 on the expression of miR 30c and miR-21 in mutant form of KRAS and Wild type was observed. […] Based on these observation our molecules targets miRNA in KRAS mutant model which acts as an attractive therapeutic tools in cancer medicine, because these miRNA that can silence multiple gene(s) and therefore switch off different pathways simultaneously, which is not possible with protein-based drugs and other covalent inhibitor of different KRAS mutant form, and eventually Compound 1 has no toxicity or off target effects compared to other standard drugs
# [15] = tested on: KRAS-driven lung tumor; assay: Tumor growth in xenograft model; format: in vivo
# Protocol: The in vivo efficacy of Compound 1 in the context of mutant KRAS was next assessed. Cells were injected into nude mice, and the tumors were allowed to grow to about 60 mm^3 in size and treated daily with Compound 1 for 14-21 days. […] At the day of harvest, the net tumor mass was determined and the average tumor weight of the Compound 1 treatment group was 89% less than the average tumor weight of the control group. […] The effect of Compound 1 treatment were further examined on KRAS-mediated RAF, MEK/ERK, and PI3K/AKT cascades in protein extracts derived from vehicle- and Compound 1-treated tumors.
# [16] = tested on: drug-sensitive EGFR mutations, and EGFR C797S mutations; assay: Enzyme activity of EGFR family members; format: biochemical
# From the text: as §1
# [17] = biological target: wild-type (WT) HER2 (Homo sapiens, UniProt P04626); assay: Enzyme activity of EGFR family members; format: biochemical
# From the text: as §1
# [18] = Pharmacokinetics in rats; format: in vivo
# [19] = tested on: RAS; assay: Effect on RAS degradation (GSK3β, Wnt/β-catenin pathway proteins); format: cell-based
# [20] = tested on: normal cell lines; assay: Toxicity in normal cell lines; format: cell-based
# Chain of wild-type (WT) HER2 (P04626 23-1255): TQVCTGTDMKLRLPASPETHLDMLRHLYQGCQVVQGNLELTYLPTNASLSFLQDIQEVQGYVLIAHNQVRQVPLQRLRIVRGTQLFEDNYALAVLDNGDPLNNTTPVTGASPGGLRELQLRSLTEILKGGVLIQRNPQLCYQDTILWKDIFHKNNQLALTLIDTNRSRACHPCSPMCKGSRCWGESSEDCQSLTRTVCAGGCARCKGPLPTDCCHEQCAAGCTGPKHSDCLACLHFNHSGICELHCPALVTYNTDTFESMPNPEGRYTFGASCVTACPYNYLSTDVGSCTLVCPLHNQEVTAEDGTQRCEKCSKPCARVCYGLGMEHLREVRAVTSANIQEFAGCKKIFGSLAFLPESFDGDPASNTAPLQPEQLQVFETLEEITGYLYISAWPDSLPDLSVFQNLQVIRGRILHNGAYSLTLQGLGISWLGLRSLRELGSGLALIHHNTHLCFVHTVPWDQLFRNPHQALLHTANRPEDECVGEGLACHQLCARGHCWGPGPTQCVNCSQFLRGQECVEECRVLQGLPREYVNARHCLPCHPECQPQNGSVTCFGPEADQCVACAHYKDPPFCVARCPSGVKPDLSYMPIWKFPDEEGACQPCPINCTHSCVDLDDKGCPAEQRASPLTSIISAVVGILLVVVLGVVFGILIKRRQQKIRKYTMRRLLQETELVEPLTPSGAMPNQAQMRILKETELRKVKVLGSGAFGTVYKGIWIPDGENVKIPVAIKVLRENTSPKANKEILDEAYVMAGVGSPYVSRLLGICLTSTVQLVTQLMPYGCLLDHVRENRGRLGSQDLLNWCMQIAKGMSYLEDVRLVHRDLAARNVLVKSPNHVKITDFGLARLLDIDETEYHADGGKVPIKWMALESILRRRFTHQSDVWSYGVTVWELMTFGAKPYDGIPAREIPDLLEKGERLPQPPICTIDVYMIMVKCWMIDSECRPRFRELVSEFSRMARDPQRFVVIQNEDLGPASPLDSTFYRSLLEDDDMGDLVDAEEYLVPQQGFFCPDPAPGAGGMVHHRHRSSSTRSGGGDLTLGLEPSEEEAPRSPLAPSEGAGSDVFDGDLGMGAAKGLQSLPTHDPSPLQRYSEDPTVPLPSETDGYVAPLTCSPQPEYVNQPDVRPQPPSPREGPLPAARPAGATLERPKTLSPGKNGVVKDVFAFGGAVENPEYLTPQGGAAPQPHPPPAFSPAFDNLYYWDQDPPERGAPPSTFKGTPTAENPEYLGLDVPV
structure (smiles),measurement,setting,value
CCCCc1ncc(C(=O)C2CC=C(C(N)=O)N2)cc1C(=O)OCC (stereo not drawn) [Compound 1],IC50,[1],4.45 ± 0.1 µM
same,IC50,[2],3.65 ± 0.44 µM
same,IC50,[3],4.21 ± 0.3 µM
same,IC50,[4],3.24 ± 0.08 µM
same,IC50,[5],1.69 ± 0.14 µM
same,IC50,[6],5.19 ± 0.28 µM
same,IC50,[7],106 ± 3.14 µM
same,IC50,[8],2.98 ± 0.6 µM
same,IC50,[9],7.52 ± 1.26 µM
same,IC50,[10],4.89 ± 0.37 µM
same,PD-L1 expression,[11],suppresses PD-L1 expression
same,"expression of KRAS downstream signaling proteins MEK, RAF and PI3K",[12],has not altered the expression
same,pERK level,[12]; control 1.42 ± 0.069,1.46 ± 0.23
same,pCRAF level,[12]; control 1.52 ± 0.025,1.42 ± 0.25
same,pP13K level,[12]; control 1.85 ± 0.32,1.62 ± 0.63
same,pAKt level,[12]; control 1.89 ± 0.63,1.72 ± 0.14
same,pMEK level,[12]; control 1.96 ± 0.22,1.85 ± 0.32
same,levels of phosphorylation of CRAF and AKT,[13],reduced the levels of phosphorylation
same,miR21 expression,[14]; control 0.72 ± 0.02,1.58 ± 0.32
same,miR30c expression,[14]; control 0.96 ± 0.025,1.89 ± 0.25
same,NF1 expression,[14]; control 1.56 ± 0.06,1.21 ± 0.033
same,BID expression,[14]; control 1.56 ± 0.36,0.32 ± 0.012
same,RASA1 expression,[14]; control 1.69 ± 0.36,0.32 ± 0.031
same,expression of miR 30c and miR-21,"[14]; mutant form of KRAS, microarray analysis",significantly reduced
same,apoptotic cells by cleaved caspase-3 staining in tumors,[15]; immunohistochemistry,prominent increase of apoptotic cells
same,cell proliferation by Ki-67 staining in tumors,[15]; immunohistochemistry,large reduction in cell proliferation
same,body weight loss or apparent toxicity,[15]; nude mice (n=6) after treatment,no significant body weight loss or apparent toxicity
same,tumor growth suppression compared to vehicle treated controls,"[15]; nude mice xenograft, suppression starting at day 9",significant suppression from day 10 to day 14
same,average tumor weight less than the control group,"[15]; nude mice, treated daily for 14-21 days, day of harvest",89%
same,"CRAF, ERK, and AKT phosphorylation in tumor protein extracts",[15]; treated vs vehicle tumors,significant suppression
same,enzyme activity of mutated EGFR,[16],effectively inhibited the enzyme activity
same,enzyme activity of HER2,[17],effectively inhibited the enzyme activity
same,Cmax,"[18]; rat, 10 mg/kg b.wt",Cmax = 1.9 μg/mL (10 mg/kg b.wt rat)
same,T1/2,[18]; rats,T1/2 = 9.8 h (rats)
same,T max,"[18]; rats, 10 mg/kg b.wt","T max = 2 h (rats, 10 mg/kg, b.wt; )"
same,Axin level,[19]; control 0.25 ± 0.05,1.96 ± 0.02
same,APC level,[19]; control 0.63 ± 0.03,0.96 ± 0.44
same,GSk3β level,[19]; control 0.69 ± 0.02,1.89 ± 0.23
same,Beta Catenin level,[19]; control 1.32 ± 0.09,0.66 ± 0.09
same,RAS level,[19]; control 1.96 ± 0.06,0.25 ± 0.03
same,RAS degradation,[19]; via GSK3β phosphorylation,degrades the RAS
same,toxicity in normal cell lines,[20],minimum toxicity
